# Compound: O=C(O)C(Cc1ccccc1[N+](=O)[O-])=NNc1nc(-c2ccc(Cl)c(Cl)c2)cs1 (mixture of isomers) [4EGI-1] + CCNC(=O)c1noc(-c2cc(C(C)C)c(O)cc2O)c1-c1ccc(CN2CCOCC2)cc1 [Luminespib] (partner 0.01 µM)
# Assay: relative viability (nuclei count vs DMSO), 5 days (fraction); higher = more cells survive
# Conditions: first compound 0.5 µM
# Summary of the method: (§1)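 Lung cancer cell lines, seeded in 1536-well plates, were treated the following day by pin tool with a single drug or with five library-drug doses (not always all listed) in √10 steps on top of a fixed anchor-drug dose. Cells were fixed and nuclei stained in one step after 5 days, and nuclei were counted. Relative viability is the nuclei count for treated wells divided by that for vehicle wells, reported as medians of duplicate plates.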
row,Cell Line,relative viability
1,A-427,1.04
2,ABC-1,0.83
3,BEN,0.371
4,CAL-12T,0.411
5,COR-L23,0.843
6,COR-L 105,1.04
7,ChaGo-K-1,0.631
8,EKVX,0.847
9,EMC-BAC-2,1.25
10,EPLC-272H,0.498
11,H3255,1.07
12,HARA,0.954
13,HCC-15,0.25
14,HCC-44,1.22
15,HCC-827,0.672
16,HOP-62,0.974
17,LC-2-ad,1.13
18,LCLC-97TM1,0.875
19,LCLC-103H,0.984
20,NCI-H522,1.18
21,NCI-H1563,0.447
22,NCI-H1623,0.637
23,NCI-H1650,0.197
24,NCI-H2170,0.931
25,NCI-H2342,0.854
26,SW 900,0.253

# Same assay, conditions: first compound 1.581 µM
row,Cell Line,relative viability
1,201T,0.973
2,A-427,0.658
3,ABC-1,0.326
4,BEN,0.332
5,CAL-12T,0.149
6,COR-L23,0.519
7,COR-L 105,0.648
8,ChaGo-K-1,0.38
9,EKVX,0.628
10,EMC-BAC-2,1.01
11,H3255,0.674
12,HARA,0.958
13,HCC-15,0.437
14,HCC-827,0.804
15,LCLC-97TM1,0.675
16,LCLC-103H,0.898
17,NCI-H522,0.612
18,NCI-H1563,0.567
19,NCI-H1623,0.553
20,NCI-H2170,0.635
21,NCI-H2342,0.758

# Same assay, conditions: first compound 5 µM
row,Cell Line,relative viability
1,201T,1.09
2,A-427,1.01
3,ABC-1,0.792
4,BEN,0.318
5,CAL-12T,0.186
6,COR-L23,0.77
7,COR-L 105,0.801
8,ChaGo-K-1,0.62
9,EKVX,0.925
10,EMC-BAC-2,1.16
11,EPLC-272H,0.318
12,H3255,0.991
13,HARA,0.968
14,HCC-15,0.268
15,HCC-44,0.979
16,HCC-827,0.661
17,HOP-62,0.868
18,LC-2-ad,0.906
19,LCLC-97TM1,0.715
20,LCLC-103H,0.989
21,NCI-H522,1.13
22,NCI-H1563,0.542
23,NCI-H1623,0.707
24,NCI-H1650,0.19
25,NCI-H2170,0.778
26,NCI-H2342,0.724
27,SW 900,0.177

# Same assay, conditions: first compound 15.81 µM
row,Cell Line,relative viability
1,201T,0.92
2,A-427,0.793
3,ABC-1,0.402
4,BEN,0.331
5,CAL-12T,0.4
6,COR-L23,0.579
7,COR-L 105,0.667
8,ChaGo-K-1,0.517
9,EKVX,0.701
10,EMC-BAC-2,1.15
11,EPLC-272H,0.251
12,H3255,0.621
13,HARA,0.645
14,HCC-15,0.157
15,HCC-44,0.764
16,HOP-62,0.89
17,LC-2-ad,0.385
18,LCLC-97TM1,0.955
19,LCLC-103H,0.82
20,NCI-H522,1.33
21,NCI-H1563,0.5
22,NCI-H1623,0.383
23,NCI-H1650,0.203
24,NCI-H2170,0.741
25,NCI-H2342,0.904
26,SW 900,0.156

# Same assay, conditions: first compound 50 µM
row,Cell Line,relative viability
1,201T,0.782
2,A-427,0.315
3,ABC-1,0.201
4,BEN,0.152
5,CAL-12T,0.251
6,COR-L23,0.0992
7,COR-L 105,0.598
8,ChaGo-K-1,0.491
9,EKVX,0.895
10,EMC-BAC-2,1.06
11,EPLC-272H,0.206
12,H3255,0.733
13,HARA,0.0683
14,HCC-15,0.152
15,HCC-44,0.23
16,HCC-827,0.581
17,HOP-62,0.31
18,LC-2-ad,0.269
19,LCLC-97TM1,0.0986
20,LCLC-103H,0.618
21,NCI-H522,0.711
22,NCI-H1563,0.412
23,NCI-H1623,0.387
24,NCI-H1650,0.221
25,NCI-H2170,0.352
26,NCI-H2342,0.677
27,SW 900,0.191

# Compound: O=C(O)C(Cc1ccccc1[N+](=O)[O-])=NNc1nc(-c2ccc(Cl)c(Cl)c2)cs1 (mixture of isomers) [4EGI-1] + C[C@]1(O)C[C@@H](c2nc(-c3ccc4ccc(-c5ccccc5)nc4c3)c3c(N)nccn32)C1 [Linsitinib] (partner 1 µM)
# Assay: as above
# Conditions: first compound 0.5 µM
# Summary of the method: as §1
row,Cell Line,relative viability
1,201T,1.04
2,A549,0.825
3,A-427,1.09
4,ABC-1,0.977
5,BEN,1.02
6,CAL-12T,0.87
7,COR-L23,1.05
8,COR-L 105,1.04
9,Calu-6,1.11
10,EBC-1,0.992
11,EKVX,1.12
12,EMC-BAC-2,0.86
13,EPLC-272H,1.31
14,H3255,1.09
15,HARA,0.982
16,HCC-15,0.884
17,HCC-44,0.708
18,HCC-78,0.612
19,HCC-366,0.791
20,HCC-827,0.969
21,HOP-62,1.19
22,IA-LM,0.536
23,LC-2-ad,0.897
24,LCLC-97TM1,0.161
25,LCLC-103H,1.09
26,NCI-H1299,0.944
27,NCI-H1563,1.31
28,NCI-H1703,1.4

# Same assay, conditions: first compound 1.581 µM
row,Cell Line,relative viability
1,201T,0.922
2,A-427,0.93
3,ABC-1,0.863
4,BEN,1.03
5,CAL-12T,0.598
6,COR-L23,0.814
7,COR-L 105,0.85
8,Calu-6,0.729
9,EBC-1,1
10,EKVX,0.859
11,EMC-BAC-2,0.748
12,EPLC-272H,0.938
13,H3255,0.697
14,HARA,0.955
15,HCC-15,0.836
16,HCC-44,0.361
17,HCC-78,0.373
18,HCC-366,0.697
19,HCC-827,0.866
20,IA-LM,0.492
21,LC-2-ad,0.764
22,LCLC-103H,0.994
23,NCI-H1299,0.931
24,NCI-H1563,0.979
25,NCI-H1703,0.632

# Same assay, conditions: first compound 5 µM
row,Cell Line,relative viability
1,201T,1.03
2,A549,0.573
3,A-427,1.03
4,ABC-1,0.806
5,BEN,1.02
6,CAL-12T,0.922
7,COR-L23,0.918
8,COR-L 105,0.999
9,Calu-6,0.995
10,EBC-1,0.995
11,EKVX,0.964
12,EMC-BAC-2,0.791
13,EPLC-272H,1.19
14,H3255,0.994
15,HARA,1.05
16,HCC-15,0.865
17,HCC-44,0.681
18,HCC-78,0.453
19,HCC-366,0.741
20,HCC-827,0.905
21,HOP-62,1.16
22,IA-LM,0.649
23,LC-2-ad,0.83
24,LCLC-97TM1,0.203
25,LCLC-103H,0.955
26,NCI-H1299,0.994
27,NCI-H1563,1.29
28,NCI-H1703,1.06

# Same assay, conditions: first compound 15.81 µM
row,Cell Line,relative viability
1,201T,0.913
2,A549,0.579
3,A-427,1.07
4,ABC-1,0.68
5,BEN,0.808
6,CAL-12T,0.779
7,COR-L23,0.492
8,COR-L 105,0.988
9,Calu-6,0.851
10,EBC-1,0.652
11,EKVX,0.755
12,EMC-BAC-2,0.777
13,EPLC-272H,1.21
14,H3255,0.584
15,HARA,0.973
16,HCC-15,0.728
17,HCC-44,0.585
18,HCC-78,0.484
19,HCC-366,0.772
20,HOP-62,1.03
21,IA-LM,0.251
22,LC-2-ad,0.432
23,LCLC-97TM1,0.198
24,LCLC-103H,1.03
25,NCI-H1299,1.05
26,NCI-H1563,1.22
27,NCI-H1703,1.27

# Same assay, conditions: first compound 50 µM
row,Cell Line,relative viability
1,201T,0.899
2,A549,0.611
3,A-427,0.618
4,ABC-1,0.419
5,BEN,0.729
6,CAL-12T,0.859
7,COR-L23,0.162
8,COR-L 105,0.675
9,Calu-6,0.9
10,EBC-1,1.04
11,EKVX,0.882
12,EMC-BAC-2,0.736
13,EPLC-272H,1.24
14,H3255,0.857
15,HARA,0.209
16,HCC-15,0.432
17,HCC-44,0.406
18,HCC-78,0.479
19,HCC-366,0.382
20,HCC-827,0.878
21,HOP-62,0.707
22,IA-LM,0.163
23,LC-2-ad,0.13
24,LCLC-97TM1,0.165
25,LCLC-103H,0.887
26,NCI-H1299,0.849
27,NCI-H1563,0.883
28,NCI-H1703,0.994

# — the supplement of paper PMC10307832
